Data taken from ChEMBL document CHEMBL4619704, “Structural determinants of affinity and selectivity in the binding of inhibitors to histone deacetylase 6” (Bioorg Med Chem Lett, 2020).

How the values were obtained:
[1] = molecular target: T1, Protein deacetylase HDAC6 (Homo sapiens, UniProt Q9UBN7); experiment: Inhibition of human HDAC6 (unknown origin)
T1 sequence (Q9UBN7 whole entry): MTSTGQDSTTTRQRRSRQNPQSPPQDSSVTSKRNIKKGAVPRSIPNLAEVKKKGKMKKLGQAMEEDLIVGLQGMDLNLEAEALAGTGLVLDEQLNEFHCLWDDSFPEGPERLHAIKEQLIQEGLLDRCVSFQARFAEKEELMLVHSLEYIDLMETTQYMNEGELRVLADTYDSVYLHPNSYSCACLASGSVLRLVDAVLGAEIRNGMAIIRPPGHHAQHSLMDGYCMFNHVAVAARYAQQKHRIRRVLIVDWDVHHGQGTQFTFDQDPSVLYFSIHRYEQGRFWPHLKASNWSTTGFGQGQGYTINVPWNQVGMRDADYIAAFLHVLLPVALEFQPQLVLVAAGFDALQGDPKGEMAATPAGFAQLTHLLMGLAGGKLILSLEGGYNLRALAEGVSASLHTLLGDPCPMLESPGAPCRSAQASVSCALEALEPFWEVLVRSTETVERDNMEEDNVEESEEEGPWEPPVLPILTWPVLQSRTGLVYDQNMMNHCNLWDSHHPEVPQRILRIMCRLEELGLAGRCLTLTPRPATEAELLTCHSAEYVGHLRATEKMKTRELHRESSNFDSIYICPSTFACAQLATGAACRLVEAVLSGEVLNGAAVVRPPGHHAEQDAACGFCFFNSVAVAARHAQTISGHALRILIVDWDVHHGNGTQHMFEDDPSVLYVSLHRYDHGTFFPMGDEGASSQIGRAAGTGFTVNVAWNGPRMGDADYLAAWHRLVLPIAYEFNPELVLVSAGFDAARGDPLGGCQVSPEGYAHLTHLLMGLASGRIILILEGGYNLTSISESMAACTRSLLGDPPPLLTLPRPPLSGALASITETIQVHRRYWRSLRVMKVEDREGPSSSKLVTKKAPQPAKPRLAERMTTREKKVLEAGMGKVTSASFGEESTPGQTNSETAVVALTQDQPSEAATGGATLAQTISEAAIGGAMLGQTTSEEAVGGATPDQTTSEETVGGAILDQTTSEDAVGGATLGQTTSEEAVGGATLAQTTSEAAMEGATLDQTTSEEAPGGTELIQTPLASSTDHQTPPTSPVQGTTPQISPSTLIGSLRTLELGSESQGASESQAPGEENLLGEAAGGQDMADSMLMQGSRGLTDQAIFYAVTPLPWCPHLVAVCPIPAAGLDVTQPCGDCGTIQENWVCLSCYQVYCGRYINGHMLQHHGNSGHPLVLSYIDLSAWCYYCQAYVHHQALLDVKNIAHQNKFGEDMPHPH

[2] = molecular target: T1, Protein deacetylase HDAC6; experiment: Inhibition of HDAC6 (unknown origin) using acetyl-lysine tripeptide as substrate preincubated for 24 hrs followed by substrate addition and measured after 30 mins by microtiter plate reader analysis
[3] = molecular target: T2, Histone deacetylase 1 (Homo sapiens, UniProt Q13547); experiment: Inhibition of HDAC1 (unknown origin)
[4] = molecular target: T2, Histone deacetylase 1; experiment: Inhibition of C-terminal Flag-tagged HDAC1 (unknown origin) expressed in HEK293 cells or Sf21 cells using Ac-NH-GGK(Ac)-AMC peptide as substrate measured after 180 mins by fluorescence based assay
[5] = molecular target: T2, Histone deacetylase 1; experiment: Inhibition of C-terminal Flag-tagged HDAC1 (unknown origin) expressed in HEK293 cells or Sf21 cells using Ac-RHK(Ac)K(Ac)-AMC peptide as substrate measured after 180 mins by fluorescence based assay

T2 sequence (Q13547 whole entry): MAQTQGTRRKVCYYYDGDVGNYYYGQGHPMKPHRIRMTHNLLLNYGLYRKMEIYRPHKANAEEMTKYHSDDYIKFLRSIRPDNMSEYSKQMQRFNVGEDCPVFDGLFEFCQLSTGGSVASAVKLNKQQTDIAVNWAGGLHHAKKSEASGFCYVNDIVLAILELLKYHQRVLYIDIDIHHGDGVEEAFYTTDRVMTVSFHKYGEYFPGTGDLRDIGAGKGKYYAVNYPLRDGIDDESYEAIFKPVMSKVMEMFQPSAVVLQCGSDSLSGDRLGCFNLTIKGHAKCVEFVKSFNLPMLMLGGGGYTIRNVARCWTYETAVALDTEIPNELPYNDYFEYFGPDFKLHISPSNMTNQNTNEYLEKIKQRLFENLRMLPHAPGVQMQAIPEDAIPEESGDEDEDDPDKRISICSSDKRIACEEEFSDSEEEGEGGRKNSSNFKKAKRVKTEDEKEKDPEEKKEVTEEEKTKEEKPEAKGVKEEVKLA

`NCCCNCCCCCC(=O)C(F)(F)F` showed an IC50 [1] of 1400 nM.

With `O=C(NO)c1cnc(NC2(c3ccccc3)CCC(F)(F)CC2)nc1` the IC50 [2] was 3 nM and the IC50 [3] was 780 nM.

For `CN(C)Cc1ccc(S(=O)(=O)n2ccc(/C=C/C(=O)NO)c2)cc1` [RESMINOSTAT], the IC50 [4] was 43 nM and the IC50 [5] was 877 nM.
